PubChem BioAssay (NCI)
“And” between values parts separate entries of the source, which are not always exact repeats. Equal values may be shown once.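 48-hour exposure; five concentrations; linearly interpolated endpoints. GI50 marks 50% less growth. Definition used: TGI = concentration required for complete inhibition of growth.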

Legend:
Assay in all cases: NCI-60 cell line screen, 48 h
EKVX NSCLC = test system: EKVX NSCLC
LOX IMVI melanoma = test system: LOX IMVI melanoma
IGROV1 ovarian = test system: IGROV1 ovarian
SK-MEL-28 melanoma = test system: SK-MEL-28 melanoma
HL-60(TB) leukemia = test system: HL-60(TB) leukemia
RPMI-8226 leukemia = test system: RPMI-8226 leukemia
NCI-H23 lung = test system: NCI-H23 lung
HCC-2998 colon = test system: HCC-2998 colon
UO-31 renal = test system: UO-31 renal
OVCAR-8 ovarian = test system: OVCAR-8 ovarian

| SMILES | TGI (EKVX NSCLC) | TGI (LOX IMVI melanoma) | TGI (IGROV1 ovarian) | TGI (SK-MEL-28 melanoma) | TGI (HL-60(TB) leukemia) | TGI (RPMI-8226 leukemia) | TGI (NCI-H23 lung) | TGI (HCC-2998 colon) | TGI (UO-31 renal) | TGI (OVCAR-8 ovarian) | GI50 (EKVX NSCLC) | GI50 (LOX IMVI melanoma) | GI50 (IGROV1 ovarian) | GI50 (SK-MEL-28 melanoma) | GI50 (HL-60(TB) leukemia) | GI50 (RPMI-8226 leukemia) | GI50 (NCI-H23 lung) | GI50 (HCC-2998 colon) | GI50 (UO-31 renal) | GI50 (OVCAR-8 ovarian) |
| --- | --- | --- | --- | --- | --- | --- | --- | --- | --- | --- | --- | --- | --- | --- | --- | --- | --- | --- | --- | --- |
| COc1ccc2c(=O)c(-c3cc(OC)c(OC)cc3OC)coc2c1 | > 100 µM | > 100 µM | > 100 µM | > 100 µM | 2.92 µM | > 40.3 µM | > 100 µM | > 63.9 µM | > 100 µM | > 100 µM | – | – | – | – | – | – | – | – | – | – |
| CCc1nc(N)nc(N)c1C#CC(C)c1ccc(-c2ccncc2)cc1Cl (stereo not given) | 2.5 µM and 12.6 µM | 1.37 µM and 11.3 µM | 6.71 µM and 19.1 µM | 4.52 µM and 17 µM | 1.75 µM and 2.61 µM | 1.7 µM and 10.8 µM | 5.01 µM and 5.71 µM | 4.07 µM and 13.1 µM | 1.47 µM and 13.5 µM | 7.66 µM and 37.7 µM | 0.0259 µM and 0.0772 µM | < 0.005 µM | < 0.005 µM and 0.0323 µM | 0.0645 µM and 0.375 µM | 0.0226 µM and 0.0298 µM | 0.145 µM and 0.0946 µM | 0.00854 µM and 0.0332 µM | 0.0869 µM and 0.134 µM | 0.0227 µM and 0.073 µM | < 0.005 µM and 0.0299 µM |
| O=C(CSSCC(=O)c1ccc(Cl)cc1)c1ccc(Cl)cc1 | > 100 µM | 8.2 µM | 26.6 µM | 22.5 µM | > 100 µM | 12.3 µM | 30.3 µM | 22.2 µM | 17.5 µM | 23.2 µM | 9.8 µM | 2.6 µM | 5.83 µM | 5.83 µM | 3.75 µM | 3.2 µM | 8.22 µM | 8.56 µM | 3.48 µM | 5.06 µM |
| CCCCC[C@@H]1CCCC2NC(CCCCCO[Si](c3ccccc3)(c3ccccc3)C(C)(C)C)CCC21 (stereo not given in full) | 34.3 µM | 28.1 µM | 32.9 µM | 32.2 µM | 23 µM | 22.2 µM | 31.7 µM | 25.1 µM | 26.6 µM | 32.7 µM | – | – | – | – | – | – | – | – | – | – |
| Cc1c(C)c2cc3c(=O)c(CCl)coc3c(C)c2oc1=O | > 100 µM | > 100 µM | > 100 µM | > 100 µM | > 100 µM | > 100 µM | > 100 µM | > 100 µM | > 100 µM | > 100 µM | – | – | – | – | – | – | – | – | – | – |
